Measured values taken from patent US5817324A, “Use of arylpyrroles for the control of resistant insect populations” (American Cyanamid Company, priority 1997, dated 1998).

Experiments:
Type in all cases: in vivo
[1] = system: pyrethroid-resistant wild horn flies (Haematobia irritans); experiment: 24 hour treated filter paper bioassay, pyrethroid-resistant horn flies, with resistance factor (Example 1)
Procedure: (§1) Evaluation Of The Effect Of Test Compounds vs. Cypermethrin On Susceptible And Resistant Strains Of Horn Flies (Haematobia irritans).
(§2) In this bioassay, highly pyrethroid-resistant wild flies and flies of a pyrethroid-susceptible lab strain are used. All flies are held in plastic petri dishes and exposed to sequential rates of test compound residue on filter paper^1. A 1.25 inch hole is cut in the bottom half of the 100 mL petri dish and covered with fiberglass window screen. The bottom is used as the top in this bioassay, in order that the flies may be blood fed through the screened opening with a muslin pad saturated with citrated cattle blood.
(§3) The experiments are conducted in triplicate to determine 24 hour LC50 data for the test compound and cypermethrin on susceptible and pyrethroid-resistant horn flies. The experiments are conducted on site so that freshly captured pyrethroid-resistant horn flies can be used. On the exemplified site, very high levels of pyrethroid resistance had been selected through several years of pyrethroid cattle ear tag use^2. Wild pyrethroid-resistant horn flies are tested within 1 hour of capture to minimize check mortality. The resistance factor (RF) is determined by the following equation:
(§4) RF=Resistant LC50 .div.Susceptible LC50
(§5) The LC50 is the concentration in μlg/cm^2 of test com-pound required to kill 50% of the fly population tested. The LC50 values are determined from the mortality data using standard log probit analysis techniques^3, and are within 95% confidence limits^1. The data obtained is shown in Table I. The references listed below are incorporated herein by reference thereto.

[2] = system: Susceptible strain of horn flies (Haematobia irritans); experiment: treated filterpaper-tarsal contact 24 hour bioassay, susceptible horn flies (Example 2); conditions: Table II
Procedure: as §2
(§6) The experiments are conducted in triplicate to determine 24 hour LC50 data for the test compound and cypermethrin on susceptible and pyrethroid-resistant horn flies. The experiments are conducted on site so that freshly captured pyrethroid-resistant horn flies can be used. On the exemplified site, very high levels of pyrethroid resistance had been selected through several years of pyrethroid cattle ear tag use^2. Wild pyrethroid-resistant horn flies are tested within 1 hour of capture to minimize check mortality. The resistance factor (RF) is determined by the following equation: […]
as §5
(§7) Evaluation Of Test Compounds vs. Permethrin On Susceptible And Resistant Strains Of Horn Flies (Haematobia irritans)
(§8) Using essentially the standard treated filterpaper-tarsal contact 24 hour bioassay described in Example 1, the following test compounds and pyrethroid insecticide are evaluated: […]

[3] = system: pyrethroid-susceptible lab strain horn flies (Haematobia irritans); experiment: 24 hour treated filter paper bioassay, pyrethroid-susceptible horn flies (Example 1)
Procedure: as §1, §2, §6, §5

[4] = system: pyrethroid-resistant Rowena strain sheep body lice; experiment: treated cotton square contact bioassay, pyrethroid-resistant sheep body lice, with resistance factor (Example 3); conditions: 16 hours
Procedure: (§9) Evaluation Of Test Compound Activity Against Susceptible And Resistant Sheep Body Lice
(§10) In this evaluation, test compounds are dissolved in acetone and diluted in a gradient series. One mL aliquots of the acetone dilutions are pipetted onto 6 cm cotton squares. The treated squares are dried and put into 9 cm petri dishes. Adult lice from the pyrethroid-susceptible Peak Hill strain and the pyrethroid-resitant Rowena strain are collected by suction from sheep, transferred onto each treated square and confined using a stainless steel ring (50 mm diameter×20 mm). After 16 hours, the lice are scored as dead, moribund or alive. In this bioassay, the test compound killed, rather than knocked-down lice. Each treatment is replicated. Standard log probit analysis techniques are used to determine the LC50 and LC99 values from the mortality data, and are within 95% confidence limits. The LC50 values are then used to determine the resistance factor (RF) as shown below.
as §4
(§11) The LC50 is the concentration in mg/L of test compound required to kill 50% of the lice population tested. The LC99 is the concentration in mg/L of test compound required to kill 99% of the lice population tested.

[5] = system: Resistant strain of horn flies (Haematobia irritans); experiment: treated filterpaper-tarsal contact 24 hour bioassay, resistant horn flies, with resistance factor (Example 2); conditions: Table II; for Resistant LC50: resistant horn flies
Procedure: as §2, §3, §4, §5, §7, §8

[6] = system: pyrethroid-susceptible Peak Hill strain sheep body lice; experiment: treated cotton square contact bioassay, pyrethroid-susceptible sheep body lice (Example 3); conditions: 16 hours
Procedure: as §9, §10, §11

[7] = Experiment 1, pyrethroid-resistant horn flies
[8] = Experiment 2, pyrethroid-resistant horn flies
[9] = Experiment 3, pyrethroid-resistant horn flies

SMILES	RF (resistance factor; Resistant LC50 ÷ Susceptible LC50) ([1]; Experiment 1)	Resistant LC50 [1, 7] [μg/cm^2]	RF (resistance factor; Resistant LC50 ÷ Susceptible LC50) ([1]; Experiment 2)	Resistant LC50 [1, 8] [μg/cm^2]	RF (resistance factor; Resistant LC50 ÷ Susceptible LC50) ([1]; Experiment 3)	Resistant LC50 [1, 9] [μg/cm^2]	Susceptible LC50 [2] [μg/cm^2]	Susceptible LC50 ([3]; Experiment 1) [μg/cm^2]	Susceptible LC50 ([3]; Experiment 2) [μg/cm^2]	Susceptible LC50 ([3]; Experiment 3) [μg/cm^2]	Resistant LC50 ([4]; Rowena strain) [µg/mL]	EC99 ([4]; Rowena strain, read-out: Resistant LC99) [µg/mL]	RF (resistance factor; Resistant LC50 ÷ Susceptible LC50) ([4]; sheep body lice)	RF (resistance factor; Resistant LC50 ÷ Susceptible LC50) [5]	Resistant LC50 [5] [μg/cm^2]	Susceptible LC50 [6] [µg/mL]	EC99 ([6]; read-out: Susceptible LC99) [µg/mL]
CCOCn1c(-c2ccc(Cl)cc2)c(C#N)c(Br)c1C(F)(F)F [Compound A, 4-bromo-2-(p-chlorophenyl)-1-(ethoxymethyl)-5-(trifluoromethyl)pyrrole-3-carbonitrile]	0.30	0.356	0.14	0.294	0.23	0.287	1.691	1.2	2.15	1.25	5.85	24.5	0.7048	0.23	0.391	8.30	52.8
CCOCn1c(-c2ccc(Cl)cc2)c(C#N)c(Cl)c1C(F)(F)F [Compound D, 4-Chloro-2-(p-chlorophenyl)-1-(ethoxymethyl)-5-(trifluoromethyl)pyrrole-3-carbonitrile]	–	–	–	–	–	–	8.692	–	–	–	–	–	–	0.123	1.066	–	–
CC1(C)C(C=C(Cl)Cl)C1C(=O)OC(C#N)c1cccc(Oc2ccccc2)c1 (centres unmarked) [Compound B, Cypermethrin, reference compound]	640	79.02	1144	65.20	3636	47.27	–	0.122	0.057	0.013	–	–	–	–	–	–	–
N#Cc1c(-c2ccc(Cl)cc2)[nH]c(C(F)(F)F)c1Br [Compound C, 4-Bromo-2-(p-chlorophenyl)-5-(trifluoromethyl)pyrrole-3-carbonitrile]	–	–	–	–	–	–	21.237	–	–	–	–	–	–	0.088	1.877	–	–
CC1(C)C(C=C(Cl)Cl)C1C(=O)OCc1cccc(Oc2ccccc2)c1 (centres unmarked) [Compound E, Permethrin, reference compound]	–	–	–	–	–	–	0.102	–	–	–	–	–	–	80.0	8.16	–	–
